Source: patent publication US5837706A, “Drug for neuroprotection” (Daiichi Pharmaceutical Co., Ltd., priority 1993, dated 1998)
“Also recorded” adds a separate entry of the source. Where two headings read alike, the source gives them in different places.

Tests used:
fodrin [1] = conditions: Seubert et al., Synapse 1987; cited from earlier work
fodrin [2] = experiment: Effect of calcium ion on breakdown of cytoskeltal protein fodrin in hippocampal homogenate (western blotting); type: biochemical, gerbil; conditions: 1 mM CaCl2 or 1 mM EGTA, 37° C., 1 hour
Procedure: The hippocampus taken out from a gerbil was homogenized with 20 mM tris buffer (pH 7.5). […] Then the homogenate was centrifuged at 10,000×g for 30 minutes. After separating proteins contained in the supernatant fraction by SDS-PAGE, the proteins were identified by western blotting with the use of a fodrin antibody (rabbit anti α-Spectrin) and a calmodulin antibody (sheep anti-bovine calmodulin).

hippocampal calmodulin [3] = experiment: Effect on intracellular localization of hippocampal calmodulin in hippocampal homogenate (radioimmunoassay); type: biochemical, gerbil; conditions: for Calmodulin Content, Soluble Fraction / Calmodulin Content, Membrane Fraction: hippocampal homogenate, 37° C., 30 minutes, 1 mM CaCl2, or 1 mM CaCl2 + 10 μM compound A; for Calmodulin Content, Soluble Fraction / Calmodulin Content, Membrane Fraction / effect on the behavior of calmodulin in the presence of EGTA: 1 mM EGTA; for Calmodulin Content, Soluble Fraction: control 4.5 ± 0.13; for Calmodulin Content, Membrane Fraction: control 8.8 ± 0.25
Procedure: The hippocampus of a gerbil was homogenized with 20 mM tris buffer (pH 7.5) containing 0.1 mM leupeptin, 0.1 mM PMSF and 0.01 mg/ml of aprotinin. […] The precipitate was solubilized with 0.1% Lubrol PX. Then the calmodulin contents in the soluble fraction and the membrane fraction were determined by radioimmunoassay.

[4] = test system: hippocampal CA1 neuronal cells; experiment: Change in hippocampal neuronal cells in cerebral ischemic model; type: in vivo, gerbil; conditions: for Hippocampal Neuronal Cell Density: 100 mg/kg orally 1 hour after 5 min ischemia, CA1, 7 days, n = 9-10, normal 194 ± 6.1, ischemia 9 ± 1.3; for protective effect on neuronal cells / suppression of neuronal cell death: cerebral ischemia, gerbil, 100 mg/kg orally 1 hour after ischemia
Procedure: When transient cerebral ischemia was loaded to a gerbil, necrosis of hippocampal cells was observed from several days thereafter. This change is called delayed neuronal cell death. Cerebral ischemia was loaded to a gerbil for 5 minutes. Seven days thereafter, the animal was sacrificed and the neuronal cells remaining in the hippocampal CA1 region were counted. Most of the hippocampal CA1 cells died due to the cerebral ischemia.

hippocampal calmodulin [5] = experiment: Effect on intracellular localization of hippocampal calmodulin in cerebral ischemic gerbil (radioimmunoassay); type: in vivo; conditions: for increase in the calmodulin content in the membrane fraction / translocation of calmodulin after cerebral ischemia: cerebral ischemic model of gerbil, 100 mg/kg orally, 24 hours after ischemia
Procedure: Both common carotid arteries of a gerbil were ligated for 10 minutes. One hour and 24 hours after allowing the blood stream to flow again, the calmodulin content in the hippocampus was determined by radioimmunoassay. The compound A (100 mg/kg) was suspended in 0.5% methylcellulose and orally administered to the animal 1 hour before cerebral ischemia.

fodrin [6] = experiment: Change in fodrin in cerebral ischemic model (western blotting); type: in vivo; conditions: cerebral ischemic model of gerbil; 100 mg/kg 1 hour before ischemia, evaluated 48 hours thereafter
Procedure: Both common carotid arteries of a gerbil were ligated for 10 minutes to thereby prepare a cerebral ischemic model. Four, 24 and 48 hours after allowing the blood stream to flow again, the hippocampus was taken out and homogenized with 20 mM tris buffer (pH 7.5) containing 0.1 mM leupeptin, 0.1 mM PMSF and […]. After centrifuging at 10,000×g for 30 minutes, proteins in the supernatant were separated by SDS-PAGE. Then fodrin and breakdown products thereof were identified by the same method as the one described in Pharmacological Example 3. The compound B (100 mg/kg) was administered 1 hour before cerebral ischemia and evaluated 48 hours thereafter. Fodrin breakdown products were little detected from the normal gerbil. In the case of the cerebral ischemic model, on the other hand, breakdown products appeared 4 hours after allowing the blood stream to flow again and similar bands were observed after 48 hours.

[7] = molecular target: T1, calmodulin-depending phosphodiesterase (CaM-PDE) / calmodulin (Bos taurus, UniProt P62157); experiment: Calmodulin inhibition effect: inhibition of calmodulin-depending phosphodiesterase (PDE); type: biochemical, bovine
T1 construct: calmodulin (CaM, from bovine brain); from tissue; host or cells: bovine brain
Procedure: The calmodulin inhibition effect of a compound was evaluated by using its effect of inhibiting calmodulin-depending phosphodiesterase (PDE) as an index. […] After ceasing the reaction by heating in a boiling water bath for 1 minute, snake venom (1 mg/ml) was added thereto and the resulting mixture was reacted at 30° C. for 10 minutes to thereby convert 5'-GMP formed by PDE into guanosine. Next, the unreacted cGMP was adsorbed by an ion exchange resin (AGI-X8). Subsequently, the mixture was centrifuged and the radioactivity of the supernatant was measured with a liquid scintillation counter.

[8] = test system: delayed neuronal cell death; conditions: Kogure et al. 1990; cited from earlier work
[9] = 100 mg/kg orally 1 hour before 10 min ischemia, 24 hrs after ischemia, n = 10-12

SMILES	stable breakdown products of fodrin (140-150 kDa) (fodrin [2])	Calmodulin Content, Soluble Fraction (hippocampal calmodulin [3])	Calmodulin Content, Membrane Fraction (hippocampal calmodulin [3])	Hippocampal Neuronal Cell Density [4]	protective effect on neuronal cells / suppression of neuronal cell death [4]	increase in the calmodulin content in the membrane fraction / translocation of calmodulin after cerebral ischemia (hippocampal calmodulin [5])	effect on the behavior of calmodulin in the presence of EGTA (hippocampal calmodulin [3])	fodrin breakdown products due to cerebral ischemia (fodrin [6])	selectivity for calmodulin [7]	other results
CN1CCN(CCCN2c3ccccc3Sc3ccc(C(F)(F)F)cc32)CC1 [trifluoropelazine]	–	–	–	–	–	–	–	–	–	breakdown of fodrin (fodrin [1]): suppressed
O=C(O)CN(CCOCCOCCN(CC(=O)O)CC(=O)O)CC(=O)O [EGTA, ethylenebis(oxyethylenenitrylo)tetraacetic acid, reference compound]	little observed	12.3 ± 0.77 μg/mg protein	7.6 ± 0.40 μg/mg protein	–	–	–	–	–	–	–
COc1ccc(Cn2nc(CCN3CCN(c4cccc(Cl)c4C)CC3)c3cc(OC)c(OC)cc32)cc1OC [compound A]	–	1.75 ± 0.52 μg/mg protein	7.1 ± 0.50 μg/mg protein	98 ± 22.0 /mm	a protective effect on neuronal cells was clearly observed; also recorded: suppress neuronal cell death	significantly suppressed; also recorded: suppress	no effect	suppress	high selectivity for calmodulin	Calmodulin Content, Cytoplasm Fraction (hippocampal calmodulin [5]; [9]): 1.3 ± 0.08 μg/mg protein; Calmodulin Content, Membrane Fraction (hippocampal calmodulin [5]; [9]): 1.4 ± 0.05 μg/mg protein; change in calmodulin content / localization caused by calcium ion (hippocampal calmodulin [3]; 10 μM compound A, 1 mM calcium chloride, in vitro): significantly suppressed; IC50 [7]: 3.93 µM
COc1cc2c(CCN3CCN(c4cccc(Cl)c4C)CC3)nn(Cc3c[nH]cn3)c2cc1OC [compound B]	–	–	–	131 ± 21.2 /mm	a protective effect on neuronal cells was clearly observed; also recorded: suppress neuronal cell death	suppress	–	scarcely detected; also recorded: suppress	high selectivity for calmodulin	IC50 ([7]; pH 7.5, 1 mM CaCl2, 30° C., 10 minutes): 5.46 µM
[Ca+2].[Cl-].[Cl-] [CaCl2, calcium chloride, reference compound]	bands of the breakdown products appeared	–	11.4 ± 0.34 μg/mg protein	–	–	–	–	–	–	calmodulin content in the membrane fraction, change in words (hippocampal calmodulin [3]; 1 mM calcium chloride, compared with EGTA): increased
NCCCCCCNS(=O)(=O)c1cccc2c(Cl)cccc12 [W-7, reference compound]	–	–	–	–	–	–	no effect	–	–	effect of suppressing delayed neuronal cell death [8]: no effect
